Results on five compounds are retold here after publication PMC6321145 (Molecules, 2018).

For data set [1], the target named is T1, Aβ1–42 (Homo sapiens, UniProt P05067).
T1 construct: Aβ1–42 (Sigma, St. Louis, MO, USA; counterion, NaOH) stock solution was prepared by dissolving Aβ1–42 peptide in ammonium hydroxide; purchased Sigma
The experiment in a line: Inhibition of Cu^2+-induced Aβ1–42 aggregation (ThT-binding assay). The note with it: [Aβ] = 20 μM, [Cu^2+] = 20 μM, [compound] = 40 μM; 37 °C, 24 h. Format: biochemical. The method, then:
To investigate the ability of compound 6b1 to inhibit Cu^2+-induced Aβ1–42 aggregation, the ThT-binding assay was performed.
Aβ was diluted in […] (pH 6.6) with […]. The mixture of the peptide (10 μL, 20 μM, final concentration) with or without copper (10 μL, 20 μM, final concentration) and the test compound (10 μL, 40 μM, final concentration) was incubated at 37 °C for 24 h. The 30 μL of the sample was diluted to a final volume of 200 μL with 50 mM glycine-NaOH buffer (pH 8.0) containing thioflavin T (5 μM). The detection method was the same as that of self-induced Aβ aggregation experiment.

Data set [2] in a line: Oxygen radical absorbance capacity with fluorescein (ORAC-FL) assay. Here is the method:
Oxidative stress is another crucial event in AD pathogenesis. In order to determine antioxidant activities of our synthetic compounds, the oxygen radical absorbance capacity method with fluorescein (ORAC-FL) assay was performed. with Trolox (6-hydroxy-2,5,7,8-tetramethylchroman-2-carboxylic acid) as the standard, and their antioxidant activity was expressed as Trolox equivalents.
The antioxidant activities of the compounds in vitro were determined by the oxygen radical absorbance capacity fluorescein (ORAC-FL) assay. The tested compounds and (±)-6-hydroxy-2,5,7,8-tetramethylchroman-2-carboxylic acid (Trolox) were dissolved in DMSO at a concentration of 10 mM, and then diluted with 75 mM potassium phosphate buffer (pH 7.4) to 50 μM and 10 μM for use. The fluorescein (FL) stock solution (3.4 mM) was diluted with the same buffer to 136 nM. All the assays were conducted with 75 mM potassium phosphate bufffer (pH 7.4), and the final reaction mixture was 200 μL.
The mixture of compounds (or buffer) (20 μL) and fluorescein (FL, 120 μL) were incubated for 15 min at 37 °C in a black 96-well plate. Then 2,2′-azobis-(amidino-propane)-dihydrochloride (AAPH) solution (60 μL, 40 mM) was rapidly added to the reaction mixture. The fluorescence was recorded every 5 min for 240 min at 485 nm (excitation wavelength) and 535 nm (emission wavelength) (Varioskan Flash Multimode Reader, Thermo Scientific, Waltham, MA, USA), and each sample was prepared and measured for three times independently. […] The net AUC for a sample was calculated using the expression net AUC = AUCsample − AUCblank, The ORAC-FL value of each sample was calculated using the equation of net AUCsample/(AUCTrolox – AUCblank), which was expressed as Trolox equivalents.

A further data set relates to SH-SY5Y cells. Kind of data set: Cellular ROS detection (DCFH-DA) in SH-SY5Y cells treated with t-BuOOH. Format: cell-based, human. The note with it: compound 2.5 μM; 0.1 mM t-BuOOH; compared with Trolox. Here is the method: To further investigate their antioxidant activity in SH-SY5Y cells, cellular ROS detection assay based on dichlorofluorescein diacetate (DCFH-DA) was performed. with Trolox and N-acetyl-L-cysteine (NAC) as reference compounds.
SH-SY5Y cells were maintained in Dulbecco’s modified Eagle’s medium (DEME) and supplemented with 1 mM glutamine, 10% fetal calf serum, 100 U/mL penicillin, and 100 μg/mL streptomycin. The cultures were maintained at 37 °C in a humidified incubator containing 5% CO2 and were passaged twice weekly.
The antioxidant activity of the compounds in SH-SY5Y cells were tested with the fluorescent probe (2′,7′-dichlorofluorescein diacetate, DCFH-DA) as reported with some variation. SH-SY5Y cells were sub-cultured in 96-well plates at a seeding density of 1 × 10^4 cells per well for 24 h, then the medium was removed, the tested compounds (2.5 μM) was added and incubated for another 24 h at 37 °C. After that, the cells were washed with PBS and incubated with 5 μM DCFH-DA in PBS at 37 °C in 5% CO2 for 30 min. Then DCFH-DA was removed, the cells were washed three times and incubated with 0.1 mM t-BuOOH in PBS for 30 min. After the incubation, the cell fluorescence from each well was measured at 485 nm excitation and 535 nm emission with a monochromator based multimode microplate reader ([…] M1000).

Data set [3] can be described thus: Cytotoxicity on SH-SY5Y cells (MTT). Format: cell-based, human. The note with it: human, SH-SY5Y neuroblastoma cells; MTT, 24 h; mean ± SEM of three measurements. Here is the method: The cytotoxicity of our synthesized compounds was examined in human neuroblastoma SH-SY5Y cells. The cell viability was determined by using methyl thiazolyl tetrazolium (MTT) colorimetry, the cells were treated with different concentrations of compounds (0–100 μM). The result is shown in the Supplementary Materials (Table S1).
The cytotoxicities of the compounds were evaluated using the MTT assay. SH-SY5Y cells were subcultured in 96-well plates at a seeding density of 1 × 10^4 cells per well. After 24 h, the medium was removed and treated with different concentrations of tested compounds for 24 h at 37 °C. The survival of cells was determined with MTT assay. Then 80 μL of medium and 20 μL of MTT (0.5 mg/mL, final concentration) were added to each well and incubated for another 4 h. After the removal of MTT, the formazan crystals were dissolved in DMSO. The amount of formazan was measured using a microculture plate reader at the wavelength of 570 nm. Each concentration was performed in triplicate.

Data set [4] deals with T1, Aβ1–42. Kind of data set: Inhibition of self-induced Aβ1–42 aggregation (ThT fluorescence assay). Format: biochemical. The conditions noted are these: for inhibition at 20 µM: inhibitor 20 μM, Aβ1–42 50 μM, ThT, 37 °C, 72 h, mean ± SD. Here is the method:
The formation and aggregation of Aβ1–42 in the brain leads to neurotoxicity in AD. In order to evaluate the activity of our new synthetic compounds to inhibit Aβ1–42 self-induced aggregation, the thioflavin (ThT) fluorescence assay was performed.
All ThT experiments were performed according to our previously published methods. Aβ1–42 (Sigma, St. Louis, MO, USA; counterion, NaOH) stock solution was prepared by dissolving Aβ1–42 peptide in ammonium hydroxide (1% v/v), and diluting with 20 mM phosphate buffer (pH 7.4) to 100 μM. The tested compounds were firstly dissolved in DMSO at a concentration of 10 mM, and then diluted with 20 mM phosphate buffer (pH 7.4) to 40 μM.
For the inhibition of self-induced Aβ1–42 aggregation. Aβ1–42 peptide (2 μL, 50 μM, final concentration) with the tested compound (2 μL, 20 μM, final concentration) or 20 mM phosphate buffer (2 μL) was incubated in 20 mM phosphate buffer (pH 7.4) at 37 °C for 72 h. After incubation, the samples were diluted to a final volume of 36 μL with 50 mM glycine-NaOH buffer (pH 8.5) containing 5 μM Thioflavin T. Fluorescence signal was measured (excitation wavelength 450 nm, emission wavelength 485 nm, and slit widths set to 5 nm) on a monochromator-based multimode microplate reader ([…] M1000, TECAN, Hombrechtikon, Switzerland), adapted for 384-well microtiter plates. […] Each compound was examined in triplicate.

Another data set addresses T2, Aβ1–42 fibrils (Homo sapiens, UniProt P05067).
T2 construct: Aβ1–42 (Sigma, St. Louis, MO, USA; counterion, NaOH) stock solution was prepared by dissolving Aβ1–42 peptide in ammonium hydroxide; purchased Sigma
The experiment in a line: TEM assay of Aβ1–42 fibrils. Format: biochemical. The note with it: compound 20 μM; 37 °C, 24 h. Here is the method: To further complement the ThT binding assay, A transmission electron microscopy (TEM) assay was employed to monitor and clarify the effect of compound 6b1 on Aβ1−42 aggregation.
The ability of compound 6b1 to disaggregate self-induced Aβ1–42 aggregation fibrils was also investigated. Aβ1–42 fibrils were prepared by incubating fresh Aβ1–42 for 24 h at 37 °C, and the test compound was added to the sample and incubated for another 24 h at 37 °C. Then the sample was analyzed by ThT binding assay and TEM assay.
Aβ1–42 peptide (Sigma) was dissolved in 20 mM phosphate buffer (pH 7.4) at 4 °C to 100 μM before use.
Aβ1–42 was incubated at 37 °C for 24 h. Then, 40 μM tested compound was added and incubated at 37 °C for another 24 h. The final concentrations of Aβ1–42 and the compounds were 50 μM and 20 μM, respectively. After incubation, aliquots (5 μL) of the samples were placed on a carbon-coated copper/rhodium grid for 2 min at room temperature. Each grid was stained with uranyl acetate (1%, 5 μL) for 2 min. Excess staining solution was removed and the specimen was transferred for imaging with transmission electron microscopy (JEOL JEM-1400, Tokyo, Japan).

T1 sequence (P05067 672-713): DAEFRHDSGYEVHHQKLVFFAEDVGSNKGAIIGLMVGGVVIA
T2 sequence (P05067 672-713): as above

As to `Oc1c(I)cc(Cl)c2cccnc12` [CQ, clioquinol], the “Inhibition of Cu^2+-induced Aβ aggregation” value at Aβ1–42 [1] is given as 83.6%.

On to `CCN(CC)CCCNc1cc(/C=C/c2ccc(N(CC)CC)cc2)nc2ccccc12` [Compound 6a1, (E)-N^1-(2-(4-(Diethylamino)styryl)quinolin-4-yl)-N^3,N^3-diethylpropane-1,3-diamine], for which the melting point was 182.3 to 184 °C. In data set [2] (compound 1 μM), the ORAC was 5.92 ± 0.03 μmol of Trolox equivalents/μmol of tested compounds. Moreover, the “Antioxidant activity in SH-SY5Y cells (ROS generation, DCFH-DA fluorescence)” value (shortened to “Antioxidant activity in SH-SY5Y cells”) in the data set with SH-SY5Y cells is on record as “more antioxidant activity than Trolox”. For the same compound, 189 µM corresponded to half-maximal inhibition in data set [3] (IC50 at 24 h). The IC50 at Aβ1–42 [4] (ThT fluorescence method, mean ± SD of three experiments, read-out: IC50 against self-induced Aβ1–42 aggregation) was 7.8 ± 0.4 µM. In addition, at Aβ1–42 [4], the inhibition at 20 µM was 90.2 ± 1.3%.

`CCN(CC)CCCNc1cc(/C=C/c2ccc(N3CCOCC3)cc2)nc2ccccc12` [Compound 6a4, (E)-N^1,N^1-Diethyl-N^3-(2-(4-morpholinostyryl)quinolin-4-yl)propane-1,3-diamine]: the melting point is 172.5 to 174.3 °C. In data set [2] (compound 1 μM), the ORAC is reported as 4.16 ± 0.04 μmol of Trolox equivalents/μmol of tested compounds. In data set [2] (compound 5 μM), the ORAC is given as 4.52 ± 0.03 μmol of Trolox equivalents/μmol of tested compounds. Besides, in the data set on SH-SY5Y cells, the “Antioxidant activity in SH-SY5Y cells” value was “a little weaker antioxidant activity than Trolox”. Further, the IC50 at 24 h in data set [3] worked out at 145.2 ± 0.9 µM. Besides, at 20 µM the inhibition on Aβ1–42 [4] was 87.9 ± 1.1%.

`CN(C)CCCNc1cc(/C=C/c2c[nH]c3ccccc23)nc2ccccc12` [Compound 6b3, (E)-N^1-(2-(2-(1H-Indol-3-yl)vinyl)quinolin-4-yl)-N^3,N^3-dimethylpropane-1,3-diamine] showed a melting point of 168.2 to 169.5 °C. For the same compound, the ORAC in data set [2] (compound 1 μM) was 3.96 ± 0.08 μmol of Trolox equivalents/μmol of tested compounds. Further, in data set [2] (compound 5 μM), the ORAC is on record as 4.21 ± 0.08 μmol of Trolox equivalents/μmol of tested compounds. Further, the “Antioxidant activity in SH-SY5Y cells” value in the data set on SH-SY5Y cells is “a little weaker antioxidant activity than Trolox”. Further, in data set [3], the IC50 at 24 h is 168.1 ± 0.2 µM. Further, at Aβ1–42 [4], the inhibition at 20 µM was determined as 87.2 ± 2.1%.

For the compound `Oc1ccc(/C=C/c2cc(O)cc(O)c2)cc1` [Res, resveratrol, reference compound], the “TEM: Aβ1–42 fibril formation in presence of compound” value on Aβ1–42 fibrils is recorded as “a few thick fibrils”. In addition, on Aβ1–42 [1], the “Inhibition of Cu^2+-induced Aβ aggregation” value is given as 71.2%. On Aβ1–42 [4], this compound gave an inhibition at 20 µM of 77.2 ± 1.1%.
